Legend:
[1] = molecular target: Inosine-5'-monophosphate dehydrogenase 2 (Homo sapiens, UniProt P12268); assay: Inhibitory activity tested against inosine-5'-monophosphate dehydrogenase 2 (IMPDH-II) enzyme
CCRF-CEM = assay: cells; settings: Homo sapiens
Description: Inhibition of CEM (human leukemia) cell proliferation.

| SMILES | IC50 [1] [nM] | IC50 (CCRF-CEM) [nM] |
| --- | --- | --- |
| Cn1cc(C#N)c2ccc(Nc3ncc(-c4ccc(CN)cc4)o3)cc21 | 260 | 2800 |
| CN(C)CCOC(=O)NCc1cccc(-c2cnc(Nc3ccc4c(C#N)cn(C)c4c3)o2)c1 | 210 | 1400 |
| Cc1ccc(NC(=O)Nc2ccc3c(C#N)cn(C)c3c2)cc1 | 230 |  |
| Cn1cc(C#N)c2ccc(Nc3ncc(-c4cccc(CNC(=O)c5ccccc5)c4)o3)cc21 | 130 | 5300 |
| Cn1cc(C#N)c2ccc(Nc3ncc(-c4ccc(CNC(=O)c5ccccc5)cc4)o3)cc21 | 100 | > 10000 |
| CC[C@H](CC#N)OC(=O)NCc1cccc(NC(=O)Nc2ccc(C#N)c(OC)c2)c1 | 6 |  |
| COc1cc(Nc2ncc(-c3ccccc3)o2)ccc1-c1cnco1 | 16 |  |
| Cn1cc(C#N)c2ccc(Nc3ncc(-c4cccc(CNC(=O)OC5CCOC5)c4)o3)cc21 (configuration not stated) | 260 | > 10000 |
| Cc1cccc(NC(=O)Nc2ccc3c(C#N)cn(C)c3c2)c1 | 670 |  |
| Cn1cc(C#N)c2ccc(Nc3ncc(-c4ccccc4CNC(=O)OC4CCOC4)o3)cc21 (configuration not stated) | 420 | > 10000 |
| Cn1cc(C#N)c2ccc(Nc3ncc(-c4ccccc4)o3)cc21 | 33 | 8000 |
| Cn1cc(C#N)c2ccc(NC(=O)Nc3ccccc3)cc21 | 630 |  |
| CC(=O)NCc1ccc(-c2cnc(Nc3ccc4c(C#N)cn(C)c4c3)o2)cc1 | 94 | > 10000 |
| Cn1cc(C#N)c2ccc(Nc3ncc(-c4ccccc4CN)o3)cc21 | 280 | 1100 |
| COc1cc(NC(=O)Nc2cccc(CNC(=O)O[C@H]3CCOC3)c2)ccc1-c1cnco1 [MERIMEPODIB] | 11 | 490 |
| Cn1cc(C#N)c2ccc(Nc3ncc(-c4ccccc4CNC(=O)OCCC#N)o3)cc21 | 420 | > 10000 |
| Cn1cc(C#N)c2ccc(Nc3ncc(-c4cccc(CNC(=O)c5ccc6ccccc6c5)c4)o3)cc21 | 40 | 4400 |
| Cc1ccc(-c2cnc(Nc3ccc4c(C#N)cn(C)c4c3)o2)cc1 | > 550 |  |
| Cn1cc(C#N)c2ccc(Nc3ncc(-c4cccc(CNC(=O)OCCC#N)c4)o3)cc21 | 240 | > 10000 |
| Cn1cc(C#N)c2ccc(Nc3ncc(-c4cccc(CNC(=O)c5cccc6ccccc56)c4)o3)cc21 | 84 | 2500 |
| Cc1cccc(-c2cnc(Nc3ccc4c(C#N)cn(C)c4c3)o2)c1 | 490 | > 10000 |
| COc1cc(Nc2ncc(-c3ccccc3N(C)C(=O)CN3CCOCC3)o2)ccc1-c1cnco1 |  | 520 |
| COc1cc(Nc2ncc(-c3ccccc3)o2)ccc1C#N | 400 |  |
| Cn1cc(C#N)c2ccc(Nc3ncc(-c4cccc(NC(=O)c5ccccc5)c4)o3)cc21 | 200 | 3500 |
| COc1cc(NC(=O)Nc2cccc(C)c2)ccc1C#N | 290 |  |
| Cn1cc(C#N)c2ccc(Nc3ncc(-c4cccc(CN)c4)o3)cc21 | 180 | 3500 |
| Cn1cc(C#N)c2ccc(Nc3ncc(-c4ccc(CNC(=O)C(C)(C)C)cc4)o3)cc21 | 180 | 4900 |
| Cc1ccccc1-c1cnc(Nc2ccc3c(C#N)cn(C)c3c2)o1 | 440 |  |
| CC(=O)OCC(=O)N(C)c1ccccc1-c1cnc(Nc2ccc3c(C#N)cn(C)c3c2)o1 | 266 |  |
